Where a name gives a salt, the structure may show the parent alone.

Chain of TrkA (P04629 33-796): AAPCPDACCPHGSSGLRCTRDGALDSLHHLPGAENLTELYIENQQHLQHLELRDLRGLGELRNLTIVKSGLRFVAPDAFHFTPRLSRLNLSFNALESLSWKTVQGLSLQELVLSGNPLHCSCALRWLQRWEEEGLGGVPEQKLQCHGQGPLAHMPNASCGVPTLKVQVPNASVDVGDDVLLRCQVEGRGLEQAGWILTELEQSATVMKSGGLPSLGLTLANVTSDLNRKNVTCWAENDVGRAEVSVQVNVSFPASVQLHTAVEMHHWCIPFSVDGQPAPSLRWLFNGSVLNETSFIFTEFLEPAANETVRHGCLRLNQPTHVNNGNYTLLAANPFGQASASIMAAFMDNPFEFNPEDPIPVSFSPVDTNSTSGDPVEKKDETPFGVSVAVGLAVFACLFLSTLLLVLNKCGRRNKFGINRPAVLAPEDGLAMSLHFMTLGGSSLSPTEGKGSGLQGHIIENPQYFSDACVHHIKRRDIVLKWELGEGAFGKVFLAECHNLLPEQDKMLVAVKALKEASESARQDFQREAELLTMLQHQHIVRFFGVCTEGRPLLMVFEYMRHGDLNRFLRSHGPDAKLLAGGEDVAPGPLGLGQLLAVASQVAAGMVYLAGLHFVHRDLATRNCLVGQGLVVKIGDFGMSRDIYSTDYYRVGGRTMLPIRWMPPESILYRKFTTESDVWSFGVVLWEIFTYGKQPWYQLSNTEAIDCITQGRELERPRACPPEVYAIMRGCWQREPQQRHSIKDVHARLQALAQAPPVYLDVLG

The target in the test is TrkA (Homo sapiens (Human), UniProt P04629). As to the kind of experiment: TrkA Omnia Assay. It is filed as biochemical. The following applies: averaged IC50; 20 nM enzyme, 500 μM ATP, 10 μM peptide substrate. On the procedure:
Trk enzymatic selectivity was assessed using Omnia™ Kinase Assay reagents from Invitrogen Corp. Enzyme (TrkA from Invitrogen Corp.) and test compound (various concentrations) were incubated for 10 minutes at ambient temperature in a 384-well white polypropylene plate (Nunc catalog#267462). Omnia Tyr Peptide #4, as well as ATP, were then added to the plate. Final concentrations were as follows: 20 nM enzyme, 500 μM of ATP, 10 μM peptide substrate. The assay buffer consisted of 25 mM MOPS pH 7.5, 0.005% (v/v) Triton X-100 and 5 mM MgCl2. The production of phosphorylated peptide was monitored continuously for 70 minutes using a Molecular Devices FlexStation II^384 microplate reader (excitation=360 nm; emission=485 nm). Initial rates were calculated from the progress curves. IC50 values were calculated from these rates using either a 4 or 5-parameter logistic curve fit.
The term IC50 denotes the midpoint of a concentration-inhibition curve. Lower therefore signals higher potency. Molecule “1-((3S,4R)-4-(3,4- fluorophenyl)-1-(2- methoxyethyl)pyrrolidin-3-yl)- 3-(1-(3-chlorophenyl)-1′,4- dimethyl-1H,1′H-[3,4′- bipyrazol]-5-yl)urea [Example 321]” showed an IC50 of under 100 nM.

For the molecule `COCCN1C[C@@H](NC(=O)Nc2cc(C(C)(C)C)nn2-c2ccc(C)cc2)[C@H](c2ccccc2)C1` (relative stereo) [Example 2, 1-(3-tert-butyl-1-p-tolyl-1H-pyrazol-5-yl)-3-(trans-1-(2-methoxyethyl)-4-phenylpyrrolidin-3-yl) urea hydrochloride], the IC50 fell in the range of 1000 to 10000 nM.

As for `COCCN1C[C@@H](NC(=O)Nc2c3c(nn2-c2ccccc2)CCC3)[C@H](c2ccc(F)c(F)c2)C1` (relative stereo) [Example 3, trans-1-(4-(3,4-difluorophenyl)-1-(2-methoxyethyl)pyrrolidin-3-yl)-3-(2-phenyl-2,4,5,6-tetrahydrocyclopenta[c]pyrazol-3-yl)urea], the IC50 was under 100 nM.

Take `COCCN1C[C@@H](NC(=O)Nc2cc(C(C)C)nn2-c2ccccc2)[C@H](c2ccc(F)c(F)c2)C1` (relative stereo) [Example 4, trans-1-(4-(3,4-difluorophenyl)-1-(2-methoxyethyl)pyrrolidin-3-yl)-3-(3-isopropyl-1-phenyl-1H-pyrazol-5-yl) urea]: the IC50 was under 100 nM.

Consider `COCCN1C[C@@H](NC(=O)Nc2cc(C(C)(C)C)nn2C)[C@H](c2ccccc2)C1` (relative stereo) [Example 5, 1-(3-tert-butyl-1-methyl-1H-pyrazol-5-yl)-3-(trans-1-(2-methoxyethyl)-4-phenylpyrrolidin-3-yl) urea], for which the IC50 lay within 1000 to 10000 nM.

On to `COCCN1C[C@@H](NC(=O)Nc2cc(C)nn2C)[C@H](c2ccccc2)C1` (relative stereo) [Example 6, 1-(1,3-dimethyl-1H-pyrazol-5-yl)-3-(trans-1-(2-methoxyethyl)-4-phenylpyrrolidin-3-yl) urea], for which the IC50 fell in the range of 1000 to 10000 nM.

Regarding `COCCN1C[C@@H](NC(=O)Nc2cc(C(C)(C)C)nn2-c2cccnc2)[C@H](c2ccccc2)C1` (relative stereo) [Example 7, 1-(3-tert-butyl-1-(pyridin-3-yl)-1H-pyrazol-5-yl)-3-(trans-1-(2-methoxyethyl)-4-phenylpyrrolidin-3-yl) urea], the IC50 fell in the range of 1000 to 10000 nM.

`COCCN1C[C@@H](NC(=O)Nc2cc(C(C)(C)C)nn2-c2ccc(F)cc2)[C@H](c2ccccc2)C1` (relative stereo) [Example 8, 1-(3-tert-butyl-1-(4-fluorophenyl)-1H-pyrazol-5-yl)-3-(trans-1-(2-methoxyethyl)-4-phenyl-pyrrolidin-3-yl)urea] had an IC50 of 100 to 1000 nM.

In turn, `COCCN1C[C@@H](NC(=O)Nc2cc(C3CC3)nn2-c2ccccc2)[C@H](c2ccccc2)C1` (relative stereo) [Example 9, 1-(3-cyclopropyl-1-phenyl-1H-pyrazol-5-yl)-3-(trans-1-(2-methoxyethyl)-4-phenylpyrrolidin-3-yl)urea] returned an IC50 of under 100 nM.

In turn, `COCCN1C[C@@H](NC(=O)Nc2cc(-c3ccccc3)nn2-c2ccccc2)[C@H](c2ccccc2)C1` (relative stereo) [Example 10, 1-(1,3-diphenyl-1H-pyrazol-5-yl)-3-(trans-1-(2-methoxyethyl)-4-phenylpyrrolidin-3-yl)urea] registered an IC50 of under 100 nM.

The molecule `COCCN1C[C@@H](NC(=O)Nc2cc(C)nn2-c2ccccc2)[C@H](c2ccccc2)C1` (relative stereo) [Example 11, 1-(trans-1-(2-methoxyethyl)-4-phenylpyrrolidin-3-yl)-3-(3-methyl-1-phenyl-1H-pyrazol-5-yl)urea] came in with an IC50 of under 100 nM.

In the case of `COCCN1C[C@@H](NC(=O)Nc2cc(C(C)C)nn2-c2ccccc2)[C@H](c2ccccc2)C1` (relative stereo) [Example 12, 1-(3-isopropyl-1-phenyl-1H-pyrazol-5-yl)-3-(trans-1-(2-methoxyethyl)-4-phenylpyrrolidin-3-yl)urea], the IC50 was under 100 nM.

As for `COCCN1C[C@@H](NC(=O)Nc2cc(-c3ccccc3)nn2C)[C@H](c2ccccc2)C1` (relative stereo) [Example 13, 1-(trans-1-(2-methoxyethyl)-4-phenylpyrrolidin-3-yl)-3-(1-methyl-3-phenyl-1H-pyrazol-5-yl)urea], the IC50 was under 100 nM.

In turn, `COCCN1C[C@@H](NC(=O)Nc2c3c(nn2-c2ccccc2)CCC3)[C@H](c2ccccc2)C1` (relative stereo) [Example 14, 1-(trans-1-(2-methoxyethyl)-4-phenylpyrrolidin-3-yl)-3-(2-phenyl-2,4,5,6-tetrahydrocyclopenta[c]pyrazol-3-yl)urea] had an IC50 of under 100 nM.

In the case of `COCCN1C[C@@H](NC(=O)Nc2ccnn2-c2ccccc2)[C@H](c2ccccc2)C1` (relative stereo) [Example 15, 1-(trans-1-(2-methoxyethyl)-4-phenylpyrrolidin-3-yl)-3-(1-phenyl-1H-pyrazol-5-yl)urea], the IC50 was in the range of 100 to 1000 nM.

In turn, `COCCN1C[C@@H](NC(=O)Nc2cc(C(C)(C)C)nn2-c2ccccc2F)[C@H](c2ccccc2)C1` (relative stereo) [Example 16, 1-(3-tert-butyl-1-(2-fluorophenyl)-1H-pyrazol-5-yl)-3-(trans-1-(2-methoxyethyl)-4-phenylpyrrolidin-3-yl)urea] had an IC50 of 1000 to 10000 nM.

`COCCN1C[C@@H](NC(=O)Nc2cc(C(C)(C)C)nn2-c2cccc(F)c2)[C@H](c2ccccc2)C1` (relative stereo) [Example 17, 1-(3-tert-butyl-1-(3-fluorophenyl)-1H-pyrazol-5-yl)-3-(trans-1-(2-methoxyethyl)-4-phenylpyrrolidin-3-yl)urea]: the IC50 was 100 to 1000 nM.

Regarding `COCCN1C[C@@H](NC(=O)Nc2c(C)c(C)nn2-c2ccccc2)[C@H](c2ccccc2)C1` (relative stereo) [Example 18, 1-(3,4-dimethyl-1-phenyl-1H-pyrazol-5-yl)-3-(trans-1-(2-methoxyethyl)-4-phenylpyrrolidin-3-yl)urea], the IC50 was under 100 nM.

The molecule `COCCN1C[C@@H](NC(=O)Nc2c3c(nn2-c2cccnc2)CCC3)[C@H](c2ccccc2)C1` (relative stereo) [Example 19, 1-(trans-1-(2-methoxyethyl)-4-phenylpyrrolidin-3-yl)-3-(2-(pyridin-3-yl)-2,4,5,6-tetrahydrocyclopenta[c]pyrazol-3-yl)urea] showed a 50% inhibitory concentration (IC50) of 100 to 1000 nM.

Regarding `COCCN1C[C@@H](NC(=O)Nc2ccnn2C)[C@H](c2ccccc2)C1` (relative stereo) [Example 20, 1-(trans-1-(2-methoxyethyl)-4-phenylpyrrolidin-3-yl)-3-(1-methyl-1H-pyrazol-5-yl)urea], the IC50 fell in the range of 1000 to 10000 nM.

Molecule `COCCN1C[C@@H](NC(=S)Nc2c3c(nn2-c2ccccc2)CCC3)[C@H](c2ccccc2)C1` (relative stereo) [Example 21, 1-(trans-1-(2-methoxyethyl)-4-phenylpyrrolidin-3-yl)-3-(2-phenyl-2,4,5,6-tetrahydrocyclopenta[c]pyrazol-3-yl)thiourea] had an IC50 of under 100 nM.

For `COCCN1C[C@@H](NC(=O)Nc2c3c(nn2-c2cccc(F)c2)CCC3)[C@H](c2ccccc2)C1` (relative stereo) [Example 22, 1-(2-(3-fluorophenyl)-2,4,5,6-tetrahydrocyclopenta[c]pyrazol-3-yl)-3-(trans-1-(2-methoxyethyl)-4-phenylpyrrolidin-3-yl)urea], the IC50 is under 100 nM.

The values are drawn from patent US10323022B2, “Pyrrolidinyl urea, pyrrolidinyl thiourea and pyrrolidinyl guanidine compounds as TrkA kinase inhibitors” (Array BioPharma Inc., priority 2011, dated 2019).
